Assays:
Assay type in all cases: cell-based
[1] = test system: human CD4+ and CD8+ T cells; assay: Western blot for autophagy-related molecule p62 after 3-day de-differentiation culture; conditions: 3-day culture, 1:3 bead-to-T cell ratio; temsirolimus 1.0 or 0.3 µM, Vitamin D 0.01-1.0 nM, Daclizumab 50 µg/ml
From the text: After the 3-day culture interval, the T cells were harvested, and protein was isolated and subjected to western blot analysis for the autophagy-related gene, p62, and the housekeeping gene, Actin.

[2] = test system: human CD4+ and CD8+ T cells; assay: Western blot for Raptor, Rictor, p70S6K, SGK1 after 3-day de-differentiation culture; conditions: relative to control culture without the three inhibitors; temsirolimus 1 µM, Vitamin D 0.03-1.0 nM, Daclizumab 50 µg/ml
From the text: After the 3-day culture interval, the T cells were harvested, and protein was isolated and subjected to western blot analysis for the mTORC1 complex protein, Raptor; the mTORC2 complex protein, Rictor; the post-mTORC1 protein p70S6K; the post-mTORC2 protein, SGK1; and the housekeeping gene, GAPDH.

[3] = test system: human CD4+ and CD8+ T cells; assay: T cell yield at day 13 after de-differentiation interval and re-stimulation without inhibitors; conditions: columns #5 and #6; Vitamin D reduced to 0.01 nM or increased to 1.0 nM
Experimental: After 10 days (13 days of total culture), the T cells were harvested, enumerated, and evaluated by flow cytometry. FIG. 8 illustrates the effect of culture components during the de-differentiation interval on subsequent T cell yield (at day 13 of culture). […] After the 3-day interval, media was exchanged to fresh X-Vivo 20 without inhibitors, high-level co-stimulation was provided (3:1 bead-to-T cell ratio), and the T cell growth cytokines IL-2 (100 IU/ml) and IL-7 (10 ng/ml) were added. At day 13 of culture, viable T cells were enumerated and the overall yield is shown relative to day 0 input number.

[4] = test system: human CD4+ and CD8+ T cells; assay: RNA expression analysis (Luminex Quantigene) after 3-day de-differentiation culture; conditions: relative to control Th1/Tc1 culture, temsirolimus 1 µM
Experimental: At the end of the de-differentiation interval, cells were harvested, RNA was isolated, and RNA expression analysis was performed by Luminex Quantigene method. All results shown represent relative RNA expression, with results normalized to a value of 1.0 for the Th1/Tc1 control culture.

[5] = test system: human CD4+ and CD8+ T cells; assay: Luminex cytokine analysis of de-differentiated T cells cultured in polarization-neutral media; conditions: Vitamin D concentration during the de-differentiation interval
Experimental: FIGS. 11A-11D depict the inflammatory Th1/Th17 cytokine analysis of cultured de-differentiated T cells in polarization-neutral media. […] After 3-days, the de-differentiated T cells were co-stimulated (typical bead-to-T cell ratio of 3:1) in media supplemented with the T cell growth cytokines rhu IL-2 (100 IU/ml) and rhu IL-7 (10 ng/ml), which are not potent in terms of inducing T cell polarization. After 10 days in culture (total, day 13 of culture), the T cells were harvested, washed, and re-stimulated with 3/28 beads (3:1 ratio) for 24 hr; the resultant supernatant was harvested and tested for cytokine content by Luminex multi-analyte method. All results shown are expressed as cytokine level in pg per ml per 1 × 10^6 cells/ml/24 hr.
FIGS. 12A-12D depicts the IL-2 and Th2-type cytokine analysis of cultured de-differentiated T cells in polarization-neutral media. […] After 3-days, the de-differentiated T cells were co-stimulated (typical bead-to-T cell ratio of 3:1) in media supplemented with the T cell growth cytokines rhu IL-2 (100 IU/ml) and rhu IL-7 (10 ng/ml), which are not potent in terms of inducing T cell polarization. […] All results shown are expressed as cytokine level in pg per ml per 1 × 10^6 cells/ml/24 hr.

[6] = test system: human CD4+ and CD8+ T cells; assay: Western blot for mTORC1 complex protein Raptor after 3-day de-differentiation culture
From the text: After the 3-day culture interval, the T cells were harvested, and protein was isolated and subjected to western blot analysis for the mTORC1 complex protein, Raptor, and the housekeeping gene, Actin.

[7] = 3-day culture, bead-to-T cell ratio 1:3, Vitamin D 0.1 or 1.0 nM

## C=C1/C(=C\C=C2/CCC[C@]3(C)[C@@H]([C@H](C)CCCC(C)(C)O)CC[C@@H]23)C[C@@H](O)C[C@@H]1O [Vitamin D, 1,25-vitamin D]
[1]
  p62 expression (western blot, normalized by actin): increased p62 expression
[2]
  Rictor expression (western blot): effective
[3]
  T cell yield at day 13 with Vitamin D 0.01 nM or 1.0 nM: very low yield
[4]; [7]
  Granzyme B RNA expression: reduction
  IFN-gamma RNA expression: reduction
  IL-10 RNA expression: reduction
[4]; Vitamin D 1.0 nM
  IL-7 receptor alpha RNA expression: not Vitamin D alone
  KLF4 RNA expression: neither temsirolimus nor Vitamin D alone increased
  KLF10 RNA expression: does not act alone to up-regulate
[4]; Vitamin D 0.1 to 1.0 nM
  HIF-1-α RNA expression: did not down-regulate
  Nanog transcription factor RNA expression: does not act alone to up-regulate
  STAT1 RNA expression: acts alone to beneficially down-regulate
  T-BET RNA expression: acts alone to beneficially down-regulate
[5]
  IFN-γ and TNF-α levels with Vitamin D 0.01 nM relative to 0.1 nM: somewhat higher levels
[6]; Vitamin D level reduced to 0.01 nM
  Raptor inhibition at Vitamin D 0.01 nM: sub-optimal Raptor inhibition
[6]; culture 7, 0.3 nM Vitamin D, versus 0.1 nM
  Raptor expression at Vitamin D 0.3 nM: higher level of Raptor expression
